Experimental data: PMC5814047, “Peptidic inhibitors of insulin-degrading enzyme with potential for dermatological applications discovered via phage display” (PLoS ONE, 2018)
Like-named read-outs stand apart in the source and are kept apart here. Bridge positions count the residues as written; N and C are the ends. Ends that are not written are not given here. Peptide text beside a SMILES is read from it.

Assays:
IDE [1] = target: T1, IDE (Homo sapiens, UniProt P14735); assay: biochemical; conditions: for IC50 <500 uM?: initial test at 500 uM; for IC50: FRET1, listed in Table 1, read-out: IC50, summary of results of the initial test; for Ki: substrate FRET1 5 μM, Ki from IC50 with the Cheng-Prusoff equation, read-out: Ki FRET1
T1 construct: made in house; host or cells: bacteria
T1 sequence (P14735 1-1019): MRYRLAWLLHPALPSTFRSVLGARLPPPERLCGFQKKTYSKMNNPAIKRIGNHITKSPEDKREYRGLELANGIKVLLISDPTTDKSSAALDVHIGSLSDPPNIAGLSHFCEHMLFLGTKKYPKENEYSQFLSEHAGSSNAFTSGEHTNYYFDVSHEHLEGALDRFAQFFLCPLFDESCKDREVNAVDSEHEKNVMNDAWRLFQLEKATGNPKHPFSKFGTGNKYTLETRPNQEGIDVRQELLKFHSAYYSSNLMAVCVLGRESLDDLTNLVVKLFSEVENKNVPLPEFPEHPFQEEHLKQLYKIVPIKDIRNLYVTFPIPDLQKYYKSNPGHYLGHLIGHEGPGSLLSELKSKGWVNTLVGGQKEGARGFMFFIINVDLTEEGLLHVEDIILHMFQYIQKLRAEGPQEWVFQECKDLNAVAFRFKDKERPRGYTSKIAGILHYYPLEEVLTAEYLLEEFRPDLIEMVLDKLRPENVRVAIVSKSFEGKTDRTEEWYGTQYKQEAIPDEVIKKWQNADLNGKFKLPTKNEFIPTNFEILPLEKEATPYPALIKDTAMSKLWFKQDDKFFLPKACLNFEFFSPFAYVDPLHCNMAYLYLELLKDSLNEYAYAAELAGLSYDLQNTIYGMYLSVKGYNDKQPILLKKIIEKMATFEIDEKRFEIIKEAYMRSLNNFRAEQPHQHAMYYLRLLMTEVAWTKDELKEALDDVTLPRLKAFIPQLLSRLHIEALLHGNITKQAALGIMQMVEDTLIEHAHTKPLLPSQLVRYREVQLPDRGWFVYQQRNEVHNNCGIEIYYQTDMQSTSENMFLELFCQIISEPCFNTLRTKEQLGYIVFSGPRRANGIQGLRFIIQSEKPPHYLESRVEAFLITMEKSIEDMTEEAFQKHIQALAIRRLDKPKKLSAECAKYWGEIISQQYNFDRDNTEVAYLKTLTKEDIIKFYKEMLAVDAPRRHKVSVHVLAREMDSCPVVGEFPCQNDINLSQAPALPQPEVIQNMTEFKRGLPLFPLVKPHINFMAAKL
Procedure: The six selected peptide sequences (C7C-1, C7C-2, 12–1, 12–2, 12–3 and 12–4) were synthesized, together with a variety of modifications, yielding a total of 25 peptides (Table 1). […] Other modifications included N-terminal acetylation and C-terminal amidation, included to mimic the charge state of the peptides when incorporated in the phage coat protein (Table 1).
IDE activity was quantified by monitoring the degradation of Mca-[…](Dnp) (FRET1, 5 μM), fluoresceinated and biotinylated amyloid ß-protein (FAßB; 500 nM) or recombinant human insulin (50 nM) in PBS supplemented with 0.05% BSA. […] In vitro activity assays incorporated recombinant human IDE (1 nM) purified from bacteria. For quantitation of insulin degradation in primary murine skin fibroblasts, cells (1 x 10^5/well) were plated in 96-well plates and maintained in DMEM supplemented with 10% fetal bovine serum (FBS), 2mM glutamine, penicillin and streptomycin. After addition of insulin (10 nM or 100 nM), samples of conditioned medium were removed daily and quickly frozen, then insulin levels were quantified in parallel by ELISA according to manufacturer’s recommendations (Crystal Chem, Downers Grove, IL, USA). Assessment of the activity of P12-3A against a variety of matrix-metalloproteases was conducted using the Matrix Metalloproteinase (MMP) Inhibitor Profiling Kit, Fluorometric RED (Enzo Life Sciences, Inc., Farmingdale, NY, USA) according to manufacturer’s recommendations using the broad-spectrum MMP inhibitor, NNGH, as a positive control.

IDE [2] = target: T1, IDE; assay: biochemical; conditions: for IC50: from initial test at 10 uM using insulin (100 nM), read-out: IC50 (summary of results, listed in Table 1); for Ki: substrate recombinant human insulin 50 nM, Ki from IC50 with the Cheng-Prusoff equation
Source text: The six selected peptide sequences (C7C-1, C7C-2, 12–1, 12–2, 12–3 and 12–4) were synthesized, together with a variety of modifications, yielding a total of 25 peptides (Table 1). For the 12-mer peptides, we synthesized variants of the parent peptides truncated at one or both termini, to test whether the entire sequence was necessary or not, in the hope that shorter, and thus less expensive, sequences might be effective. Other modifications included N-terminal acetylation and C-terminal amidation, included to mimic the charge state of the peptides when incorporated in the phage coat protein (Table 1). To assess the extent to which these peptide sequences inhibit IDE, we quantified their potency in protease activity assays using recombinant human IDE and two different substrates: FRET1, a fluorogenic peptide, and recombinant human insulin.
IDE activity was quantified by monitoring the degradation of Mca-[…](Dnp) (FRET1, 5 μM), fluoresceinated and biotinylated amyloid ß-protein (FAßB; 500 nM) or recombinant human insulin (50 nM) in PBS supplemented with 0.05% BSA. FRET1 degradation was measured by changes in fluorescence (λex = 340 nm, λem = 420 nm); FAßB degradation was monitored by fluorescence polarization (λex = 488 nm, λem = 525 nm), as described; and insulin degradation was quantified by ELISA. In vitro activity assays incorporated recombinant human IDE (1 nM) purified from bacteria. For quantitation of insulin degradation in primary murine skin fibroblasts, cells (1 x 10^5/well) were plated in 96-well plates and maintained in DMEM supplemented with 10% fetal bovine serum (FBS), 2mM glutamine, penicillin and streptomycin. After addition of insulin (10 nM or 100 nM), samples of conditioned medium were removed daily and quickly frozen, then insulin levels were quantified in parallel by ELISA according to manufacturer’s recommendations (Crystal Chem, Downers Grove, IL, USA). Assessment of the activity of P12-3A against a variety of matrix-metalloproteases was conducted using the Matrix Metalloproteinase (MMP) Inhibitor Profiling Kit, Fluorometric RED (Enzo Life Sciences, Inc., Farmingdale, NY, USA) according to manufacturer’s recommendations using the broad-spectrum MMP inhibitor, NNGH, as a positive control.

[3] = initial test, percent of initial velocity relative to DMSO-only controls, N 4, read-out: Percent activity at 500 uM, Mean
[4] = initial test, percent of initial velocity relative to DMSO-only controls, individual replicates, read-out: Percent activity at 500 uM, Replicate 1-4
[5] = judged as IC50 <100 uM?, N 4, read-out: Percent activity at 500 uM, Mean
[6] = judged as IC50 <100 uM?, individual replicates, read-out: Percent activity at 500 uM, Replicate 1-4

Row | Compound | IC50 <500 uM? (IDE [1]) | remaining activity at 500 µM (IDE [1]; [3]) [%] | remaining activity at 500 µM (IDE [1]; [4]) [%] | remaining activity at 500 µM (IDE [1]; [5]) [%] | remaining activity at 500 µM (IDE [1]; [6]) [%] | IC50 <10 uM? (IDE [2]; initial test at 10 uM using insulin (100 nM)) | remaining activity at 0.016 µM (IDE [2]; insulin ELISA, Cmpd 0.016 uM, Runs 1-3, read-out: Percent Activity (normalized source data)) [%] | remaining activity at 0.08 µM (IDE [2]; insulin ELISA, Cmpd 0.08 uM, Runs 1-3, read-out: Percent Activity (normalized source data)) [%] | remaining activity at 0.4 µM (IDE [2]; insulin ELISA, Cmpd 0.4 uM, Runs 1-3, read-out: Percent Activity (normalized source data)) [%] | remaining activity at 2 µM (IDE [2]; insulin ELISA, Cmpd 2 uM, Runs 1-3, read-out: Percent Activity (normalized source data)) [%] | remaining activity at 10 µM (IDE [2]; insulin ELISA, Cmpd 10 uM, Runs 1-3, read-out: Percent Activity (normalized source data)) [%] | IC50 (IDE [1]) [µM] | Ki (IDE [1]) [µM] | IC50 (IDE [2]) [µM] | Ki (IDE [2]) [µM]
1 | CC[C@H](C)[C@@H]1NC(=O)[C@H](CO)NC(=O)[C@H](Cc2c[nH]c3ccccc23)NC(=O)[C@H](Cc2c[nH]c3ccccc23)NC(=O)[C@H](CO)NC(=O)[C@@H](NC(=O)[C@H](C)N)CSSC[C@@H](C(=O)NCC(N)=O)NC(=O)[C@H](CC(C)C)NC(=O)[C@H](Cc2c[nH]cn2)NC1=O [C7C-1A] (H-ACSWWSIHLCG-NH2; disulfide 2-10 (inferred)) | YES | 22.5 | 25.1 | 59.5 | 56.6 | – | – | – | – | – | – | – | – | – | –
2 | CC[C@H](C)[C@@H]1NC(=O)[C@H](CO)NC(=O)[C@H](Cc2c[nH]c3ccccc23)NC(=O)[C@H](Cc2c[nH]c3ccccc23)NC(=O)[C@H](CO)NC(=O)[C@@H](NC(=O)[C@H](C)N)CSSC[C@@H](C(=O)NCC(=O)NCC(=O)NCC(=O)O)NC(=O)[C@H](CC(C)C)NC(=O)[C@H](Cc2c[nH]cn2)NC1=O [C7C-1B] (H-ACSWWSIHLCGGG-OH; disulfide 2-10 (inferred)) | YES | 30.4 | 30.3 | 56.8 | 63.2 | – | – | – | – | – | – | – | – | – | –
3 | CC[C@H](C)[C@@H]1NC(=O)[C@H](CO)NC(=O)[C@H](Cc2c[nH]c3ccccc23)NC(=O)[C@H](Cc2c[nH]c3ccccc23)NC(=O)[C@H](CO)NC(=O)[C@@H](NC(=O)[C@H](C)N)CSSC[C@@H](C(=O)NCC(=O)O)NC(=O)[C@H](CC(C)C)NC(=O)[C@H](Cc2c[nH]cn2)NC1=O [C7C-1] (H-ACSWWSIHLCG-OH; disulfide 2-10 (inferred)) | YES | 11.4 | – | 44.2 | 52 | YES | 75 | 93.7 | 66.1 | 73.9 | 51.8 | – | – | – | –
4 | CC(C)C[C@@H]1NC(=O)[C@H](Cc2c[nH]cn2)NC(=O)CNC(=O)[C@H](C)NC(=O)[C@H](CC(N)=O)NC(=O)[C@@H](NC(=O)[C@H](C)N)CSSC[C@@H](C(=O)NCC(N)=O)NC(=O)[C@H](CCC(N)=O)NC(=O)[C@H](CO)NC1=O [C7C-2A] (H-ACNAGHLSQCG-NH2; disulfide 2-10 (inferred)) | – | 94.1 | – | 92.7 | 92.5 | – | – | – | – | – | – | – | – | – | –
5 | CC(C)C[C@@H]1NC(=O)[C@H](Cc2c[nH]cn2)NC(=O)CNC(=O)[C@H](C)NC(=O)[C@H](CC(N)=O)NC(=O)[C@@H](NC(=O)[C@H](C)N)CSSC[C@@H](C(=O)NCC(=O)O)NC(=O)[C@H](CCC(N)=O)NC(=O)[C@H](CO)NC1=O [C7C-2] (H-ACNAGHLSQCG-OH; disulfide 2-10 (inferred)) | – | 54 | 48.4 | 72.8 | 76.4 | – | – | – | – | – | – | – | – | – | –
6 | Ac-FPMPSRPH-NH2 [P12-2D] | – | – | – | – | 88.8 | – | – | – | – | – | – | > 500 | > 500 | > 10 | > 10
7 | Ac-MPSRPHSS [P12-2C] | – | – | – | – | 72.7 | – | – | – | – | – | – | > 500 | > 500 | > 10 | > 10
8 | Ac-PISGKFFQ-NH2 [P12-4D] | – | – | 74.3 | – | 91.1 | – | – | – | – | – | – | > 500 | ≥ 500 | > 10 | ≥ 10
9 | Ac-SGKFFQRF [P12-4C] | – | – | 59.7 | – | 77.6 | – | – | – | – | – | – | > 500 | ≥ 500 | > 10 | ≥ 10
10 | LNFPMPSR-NH2 [P12-2B] | – | – | 81.3 | – | – | – | – | – | – | – | – | > 500 | > 500 | > 10 | > 10
11 | LNFPMPSRPHSS [P12-2] | YES | – | – | – | 59.9 | – | – | – | – | – | – | > 100 | > 100 | > 10 | > 10
12 | LNFPMPSRPHSS-NH2 [P12-2A] | YES | – | 31.8 | – | 58.5 | – | – | – | – | – | – | > 100 | > 100 | > 10 | > 10
